The results in this text go back to patent US8759363B2, “Quinazoline-based T cell proliferation inhibitors” (Yissum Research Development Company of the Hebrew …, priority 2010, dated 2014).

Where two headings read alike, the source gives them in different places.

One assay has as its system TEA (stimulated) cells. The assay can be described thus: MLR with resting control cells, stimulated TEA cells. It is filed as cell-based, mouse. The conditions noted are these: 0.5 μM, 72 h MLR with IL-7; no inhibitor 3850. The source says:
The aim of this test was to determine whether 2 affects only the proliferating cells or there is a general mechanism affecting all cell numbers. For this purpose we mixed 3 cell types: […]: BALB/c, 2C and OT1; […]: CB6F1, TEA and OT2. The OT1 and OT2 are splenocytes that were isolated from OT1 and OT2 mice (Jackson Laboratories, Bar Harbor, Me.),
Thus, the ability to monitor the fate of proliferation and resting cells by FACS was enabled due to the use of the MLR described above for CD4+ and CD8+ and the addition of OT2 and OT1 splenocytes, respectively.
Proliferating cells often secrete cytokines that induce survival of neighbouring cells; since the proliferation was expected to be inhibited we added 50 ng/ml of IL-7. This concentration is sufficient to keep the cells alive, but not to induce proliferation.
The number of TEA and OT2 cells that were treated with 0.5 μM 2 was 1452 and 826, respectively, while the number of 2C and OT1 cells that were treated with 0.5 μM 21 was 3003 and 903, respectively. This is depicted as a bar-graph in FIG. 9C.

The next assay relates to Keratinocytes. Nature of the assay: Keratinocyte proliferation, BrdU uptake. The settings on record: Homo sapiens, serum activated, read-out: IC50 of stimulated cells. It is filed as cell-based. The protocol: Primary human keratinocytes were maintained in keratinocyte growth medium (KGM): DMEM, 25% Nutrient mixture F-12 (HAM), 10% fetal bovine serum, 5 μg/ml insulin, 0.4 μg/ml hydrocortisone, 0.1 nM cholera toxin, 10 ng/ml epidermal growth factor, 1.8×10^−4 M adenine, 5 μg/ml transferrin, 2 nM T3, 100,000 U/l penicillin, […] streptomycin, 0.1 mg/ml amphotericin. The primary keratinocytes were cultured from small biopsy specimens.
(§1) Cells were depleted of fetal calf serum (FCS) for 12 hours. They were then stimulated to proliferate by addition of ConA (10 μg/ml) for PBMC from healthy individuals and for Jurkat cells, FCS (10%) for HEK293 and A375 cells, PDGF (30 ng/ml) for NIH 3T3 cells, and EGF (30 ng/ml) for MDA-MB-231, Cells (1×10^5) were cultured in 96-well plates for 3 days in the presence or absence of inhibitors at the concentrations specified in the text. Each condition was tested in duplicate wells.
Proliferation was assessed by BrdU incorporation using a colorimetric ELISA kit (Roche, Germany). Subsequent to labeling with 10 μM BrdU, DNA was denatured and the cells were incubated with anti-BrdU-POD, prior to the addition of colorimetric substrate (TMB). The reaction product was quantified by measuring absorbance at 450 nm in an ELISA plate reader (ELx800 BIO-TEK Instruments Inc.). […]

In the next assay the test system is PBMC. Nature of the assay: PBMC proliferation, BrdU incorporation. The settings on record: Homo sapiens. It counts as cell-based, human. On the procedure:
Blood samples were taken from healthy donors and loaded on a Ficoll density gradient to purify the PBMC population. T cells were purified by human anti-CD3 using an autoMACS instrument (Miltenyi Biotec, Bergisch-Gladbach, Germany), according to the manufacturer's instructions. The identity of T cells was confirmed by flow cytometry, as they stained positive for CD3. Cells were stimulated with ConA (10 μg/ml), ODN2006 (0.5 μg/ml; Enzo Life Sciences), or LPS (50 μg/ml; Sigma-Aldrich, Steinheim, Germany), for 72 h in the presence of the inhibitor, and their proliferation was measured in the BrdU incorporation assay as will be later described.
as §1
Proliferation was assessed by BrdU incorporation using a colorimetric ELISA kit (Roche, Germany). Subsequent to labeling with 10 μM BrdU, DNA was denatured and the cells were incubated with anti-BrdU-POD, prior to the addition of colorimetric substrate (TMB). The reaction product was quantified by measuring absorbance at 450 nm in an ELISA plate reader (ELx800 BIO-TEK Instruments Inc.).
Since we were not prejudiced towards any specific protein kinase, we used a biological assay for T cell proliferation. We tested our libraries for inhibition of proliferation of PBMC and Jurkat cells (Table 3). Cell proliferation was measured by BrdU uptake. […] PBMC cells were stimulated by a non-specific T cell mitogen, Concanavalin A (ConA). All of the compounds that were tested inhibited proliferation at micromolar or sub-micromolar concentrations.
(Uptake of a labelled nucleoside into DNA is a usual measure of proliferation.)

In assay [1] the test system is CD8+ (2C) and CD4+ (TEA) T cells. The assay can be described thus: MLR, double-positive CD8+1B2+ (2C) or CD4+/Va2+ (TEA) effector cells by FACS. It counts as cell-based, mouse. The conditions noted are these: 72 h MLR. The source says: Mice used included male and female 6- to 12-week-old CB6/F1 mice, obtained from the Roscoe B. Jackson Memorial Laboratory (The Jackson Laboratory, Bar Harbor, Me., http://www.jax.org). A breeding pair of transgenic (Tg) H-2b mice expressing the T-cell antigen receptor (TCR) 1B2 from the CD8+ clone 2C with specificity for H-2Ld was kindly provided by Janko Nikolic-Zugic (Memorial Sloan-Kettering Cancer Center, New York, http://www.mskcc.org). A breeding pair of Tg H-2b mice expressing the TCR from the CD4+ clone known as TEA with specificity for I-Ead allopeptide, cross-presented by host APC and bound to I-Ab and was kindly provided by Alexander Y. Rudensky (University of Washington, Seattle). I-Ead allopeptide corresponds to the positions 52 to 68 from the alpha-chain of I-E class II molecules and is expressed in all APCs from H-2b/I-E+ strains (CB6F1-hybrid of C57BL/6 and Balb/c). C57BL/6 mice are H-2b but I-E−, whereas BALB/c are H-2d and I-E+, and therefore their F1 hybrids are H-2b/1-E+ and able to directly present antigen.
Responder 2C splenocytes were harvested, and the cell suspensions were treated with Tris-buffered ammonium chloride to remove RBC. […] On day 3, the MLR cultures were harvested, and analyzed by FACS for CD4 or CD8 levels.
FACS analysis was performed using a modified FACScan (BD Biosciences, Mountain View, Calif.). Fluorescence data were collected during one minute. […]
For orientation: In flow cytometry, cells or beads pass a laser one at a time.

As to `COc1cc(-c2nc(Nc3ccc(C)cc3)c3ccccc3n2)cc(OC)c1OC` [Compound 2, N-p-tolyl-2-(3,4,5-trimethoxyphenyl)quinazolin-4-amine], in the assay on TEA (stimulated) cells, the “number of TEA (stimulated) cells” value was 1452. Moreover, the IC50 in the assay with Keratinocytes was over 10000 nM; in the assay with PBMC (PBMC, ConA 10 μg/ml, 72 h, read-out: IC50 ConA-stimulated proliferation of PBMC) it was about 100 nM; in the assay with PBMC (PBMC, ODN2006 0.5 μg/ml or LPS 50 μg/ml, 72 h, read-out: IC50 ODN2006 and LPS-stimulated proliferation of PBMCs) it was about 500 nM; in the assay with PBMC (ConA-stimulated PBMC, BrdU uptake, nM ± SD, read-out: IC50 PBMC proliferation inhibition) it was 70 nM; in the assay on PBMC (PBMC, non-stimulated, BrdU uptake, read-out: IC50 of non-stimulated cells), 50 nM. In addition, the “percentage of double-positive effector cells” value in assay [1] was “reduced in a dose dependent manner”.
